{
  "source": "patent US11970496B1",
  "about": "“Pyrrolo[3,2-c]quinoline compounds as CK2 inhibitors” (KING FAISAL UNIVERSITY, priority 2023, dated 2024)",
  "key": {"PC3 (prostate)": {"system": "PC3 (prostate)", "assay": "In vitro cytotoxic activity assay (MTT), PC3", "type": "cell-based", "settings": "Homo sapiens, PC-3; PC3 cells, exposed for 96 hours; read-out: IC50, 50% inhibition of cell proliferation, PC3 (prostate)", "procedure": "(§1) Compounds 1-12 were screened for their in vitro cytotoxic activity utilizing a 3-(4,5-dimethyl-thiazol-2-yl)-2,5-diphenyltetrazolium bromide (MTT) assay against selected cancer human cell lines consisting of PC3 (prostate), HCT116 (colon), A375 (melanoma), H1299 (lung), MIAPaCa-2 (pancreas), HL60 (leukemia), MCF7 (breast), MDA-MB-231 (breast) (T. Mosmann, J. Immunol. Meth., 1983, 65, 55-63). The cells were cultured at 37° C. in RMPI1640 medium supplemented with 10% fetal bovine serum, 50 IU/mL penicillin, and 50 μg/mL streptomycin in a 5% CO2 incubator. All cells were sub-cultured 3 times/week by trypsinisation. Viable cells were seeded and allowed to adhere for 12 h before a test drug was added in 96-well plates at an initial density of 1.0×10^5 cells/mL. Tumour cell lines were separately exposed to various concentrations of the tested compounds followed by incubation at a temperature of 37° C. during 96 h inside a medium of fresh RMPI 1640. Cells were subsequently incubated at 37° C. using MTT at 0.5 mg/mL during 4 h. After removal of supernatant, formazan crystals were dissolved in isopropanol and the optical density was measured at 570 nm. CX-4945 was used as a positive control."}, "A375 (melanoma)": {"system": "A375 (melanoma)", "assay": "In vitro cytotoxic activity assay (MTT), A375", "type": "cell-based", "settings": "Homo sapiens, A-375; A375 cells, exposed for 96 hours; read-out: IC50, 50% inhibition of cell proliferation, A375 (melanoma)", "procedure": "as §1"}, "HL60 (leukemia)": {"system": "HL60 (leukemia)", "assay": "In vitro cytotoxic activity assay (MTT), HL60", "type": "cell-based", "settings": "Homo sapiens, HL-60; HL60 cells, exposed for 96 hours; read-out: IC50, 50% inhibition of cell proliferation, HL60 (leukemia)", "procedure": "as §1"}, "HCT116 (colon)": {"system": "HCT116 (colon)", "assay": "In vitro cytotoxic activity assay (MTT), HCT116", "type": "cell-based", "settings": "Homo sapiens, HCT-116; HCT116 cells, exposed for 96 hours; read-out: IC50, 50% inhibition of cell proliferation, HCT116 (colon)", "procedure": "as §1"}, "H1299 (lung)": {"system": "H1299 (lung)", "assay": "In vitro cytotoxic activity assay (MTT), H1299", "type": "cell-based", "settings": "Homo sapiens, NCI-H1299; H1299 cells, exposed for 96 hours; read-out: IC50, 50% inhibition of cell proliferation, H1299 (lung)", "procedure": "as §1"}, "MDA-MB-231 (breast)": {"system": "MDA-MB-231 (breast)", "assay": "In vitro cytotoxic activity assay (MTT), MDA-MB-231", "type": "cell-based", "settings": "Homo sapiens; MDA-MB-231 cells, exposed for 96 hours; read-out: IC50, 50% inhibition of cell proliferation, MDA-MB-231 (breast)", "procedure": "as §1"}, "MIAPaCa-2 (pancreas)": {"system": "MIAPaCa-2 (pancreas)", "assay": "In vitro cytotoxic activity assay (MTT), MIAPaCa-2", "type": "cell-based", "settings": "Homo sapiens, MIA PaCa-2; MIAPaCa-2 cells, exposed for 96 hours; read-out: IC50, 50% inhibition of cell proliferation, MIAPaCa-2 (pancreas)", "procedure": "as §1"}, "[1]": {"target": "T1, recombinant human CK2 (RRββ-holoenzyme) (Homo sapiens, UniProt P68400)", "T1 construct": "purchased Millipore", "T1 sequence (P68400 whole entry)": "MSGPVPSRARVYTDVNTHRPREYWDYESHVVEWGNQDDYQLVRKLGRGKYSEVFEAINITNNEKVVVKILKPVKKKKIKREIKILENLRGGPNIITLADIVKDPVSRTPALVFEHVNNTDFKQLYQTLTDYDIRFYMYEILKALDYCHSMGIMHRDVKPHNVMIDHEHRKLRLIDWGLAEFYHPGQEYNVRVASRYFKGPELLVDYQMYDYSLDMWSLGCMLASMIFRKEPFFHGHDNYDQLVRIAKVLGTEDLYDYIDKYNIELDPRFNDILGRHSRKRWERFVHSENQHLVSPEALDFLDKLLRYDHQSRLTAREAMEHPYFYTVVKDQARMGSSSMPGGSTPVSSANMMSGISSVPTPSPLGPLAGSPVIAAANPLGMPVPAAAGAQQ", "T1 sequence (P67870 whole entry partner)": "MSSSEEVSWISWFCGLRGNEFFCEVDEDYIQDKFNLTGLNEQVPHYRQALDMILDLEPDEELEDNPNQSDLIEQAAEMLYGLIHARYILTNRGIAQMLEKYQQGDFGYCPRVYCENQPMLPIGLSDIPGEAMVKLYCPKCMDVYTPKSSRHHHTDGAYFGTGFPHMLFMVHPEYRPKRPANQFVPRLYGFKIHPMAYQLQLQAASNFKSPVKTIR", "assay": "CK2 Kinase Assay (33P-ATP, substrate peptide RRRDDDSDDD)", "type": "biochemical", "settings": "final ATP concentration 15 μM, 10 min at 30° C.; read-out: protein kinase CK2 IC50", "procedure": "CK2 Kinase Assay was conducted using the protocol as described in Pierre F. et al; J. Med. Chem. 2011, 54, 635-654. The tested compounds in aqueous solution were added at a volume of 10 μL to a reaction mixture comprising 10 μL of assay dilution buffer (ADB; 20 mM MOPS, pH 7.2, 25 mM (3-glycerol phosphate, 5 mM EGTA, 1 mM sodium orthovanadate, and 1 mM dithiothreitol), 10 μL of substrate peptide (RRRDDDSDDD, dissolved in ADB at a concentration of 1 mM), 10 μL of recombinant human CK2 (RRββ-holoenzyme, 25 ng dissolved in ADB; Millipore). Reactions were initiated by the addition of 10 μL of ATP solution (90% 75 mMMgCl2, 75 μM ATP (final ATP concentration: 15 μM) dissolved in ADB; 10% [γ-33P] ATP (stock 1 mCi/100 μL; 3000 Ci/mmol (Perkin-Elmer) and maintained for 10 min at 30° C. The reactions were quenched with 100 μL of 0.75% phosphoric acid and then transferred to and filtered through a phosphor cellulose filter plate (Millipore). After washing each well five times with 0.75% phosphoric acid, the plate was dried under vacuum for 5 min and, following the addition of 15 μL of scintillation fluid to each well, the residual radioactivity was measured using a Wallac […]. The IC50 values were derived from eight concentrations of test inhibitors."}, "MCF7 (breast)": {"system": "MCF7 (breast)", "assay": "In vitro cytotoxic activity assay (MTT), MCF7", "type": "cell-based", "settings": "Homo sapiens; MCF7 cells, exposed for 96 hours; read-out: IC50, 50% inhibition of cell proliferation, MCF7 (breast)", "procedure": "as §1"}},
  "data": [
    {"compound": "O=C(O)c1ccc2c(c1)nc(Nc1cccc(Cl)c1)c1cc(C(=O)O)[nH]c12", "note": "[Compound 1, 4-((3-chlorophenyl)amino)-1H-pyrrolo[3,2-c]quinoline-2,7-dicarboxylic acid]", "values": [
      {"measurement": "IC50", "setting": "PC3 (prostate)", "value": 1800, "unit": "nM"},
      {"measurement": "IC50", "setting": "A375 (melanoma)", "value": 2200, "unit": "nM"},
      {"measurement": "IC50", "setting": "HL60 (leukemia)", "value": 2900, "unit": "nM"},
      {"measurement": "IC50", "setting": "HCT116 (colon)", "value": 1900, "unit": "nM"},
      {"measurement": "IC50", "setting": "H1299 (lung)", "value": 1600, "unit": "nM"},
      {"measurement": "IC50", "setting": "MDA-MB-231 (breast)", "value": 3500, "unit": "nM"},
      {"measurement": "IC50", "setting": "MIAPaCa-2 (pancreas)", "value": 1300, "unit": "nM"},
      {"measurement": "IC50", "setting": "[1]", "value": 37, "unit": "nM"},
      {"measurement": "IC50", "setting": "MCF7 (breast)", "value": 4400, "unit": "nM"}
    ]}
  ]
}
